Measurements from PubChem BioAssay (NCI).
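Values below derive from 48-hour exposures of cells grown in 96-well plates, with endpoints linearly interpolated between the two concentrations bracketing the appropriate inhibition level. GI50 marks 50% less growth. At the TGI there is no net growth.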

Experiments:
Assay in all cases: NCI anticancer screen, dose series, 48 h
PC-3 prostate = system: PC-3 prostate
SF-268 CNS = system: SF-268 CNS
SK-MEL-28 melanoma = system: SK-MEL-28 melanoma
T-47D breast = system: T-47D breast
SF-295 CNS = system: SF-295 CNS
SNB-19 CNS = system: SNB-19 CNS
DU-145 prostate = system: DU-145 prostate
NCI/ADR-RES ovarian = system: NCI/ADR-RES ovarian
M14 melanoma = system: M14 melanoma
HS 578T breast = system: HS 578T breast

Row | Compound | GI50 (PC-3 prostate) [µM] | TGI (PC-3 prostate) [µM] | GI50 (SF-268 CNS) [µM] | TGI (SF-268 CNS) [µM] | GI50 (SK-MEL-28 melanoma) [µM] | TGI (SK-MEL-28 melanoma) [µM] | GI50 (T-47D breast) [µM] | TGI (T-47D breast) [µM] | GI50 (SF-295 CNS) [µM] | TGI (SF-295 CNS) [µM] | GI50 (SNB-19 CNS) [µM] | TGI (SNB-19 CNS) [µM] | GI50 (DU-145 prostate) [µM] | TGI (DU-145 prostate) [µM] | GI50 (NCI/ADR-RES ovarian) [µM] | TGI (NCI/ADR-RES ovarian) [µM] | GI50 (M14 melanoma) [µM] | TGI (M14 melanoma) [µM] | TGI (HS 578T breast) [µM] | GI50 (HS 578T breast) [µM]
1 | NC(=NC1CCCCCC1)c1ccc(N2CCN(c3ccc(C(N)=NC4CCCCCC4)cc3)CC2)cc1 | 12.1 | > 50 | 6.92 | 15 | 10.7 | 22.4 | 15.2 | > 50 | 3.89 | 19.9 | 10.1 | 27.1 | 7.59 | > 50 | > 50 | > 50 | 8.74 | 30.5 | – | –
2 | CC[O-].CC[O-].O=Nc1ccc2cc([O-])ccc2c1.O=Nc1ccc2cc([O-])ccc2c1.[Ti+4] | – | – | 2.29 | 5.78 | 1.81 | 3.4 | – | – | 1.8 | 10.5 | 3.61 | 13.2 | – | – | – | – | – | – | – | –
3 | CC(=O)Oc1cccc2c1C(=O)C(Br)(Br)CCC2 | – | 16 | – | 42.7 | – | 25.7 | – | 4.61 | – | 31.3 | – | 25.2 | – | 26.6 | – | – | – | 8.67 | 39.7 | –
4 | N#CC1(c2nc3ccccc3o2)C(=O)C(=O)N(c2ccc(Cl)c(Cl)c2)C(=O)C1=O | – | – | – | > 100 | – | > 100 | – | – | – | > 100 | – | > 100 | – | – | – | – | – | > 100 | – | –
5 | CNS(=O)(=O)NN(C)S(=O)(=O)c1ccc(Br)cc1 | – | – | – | – | – | – | – | – | – | > 100 | – | > 100 | – | – | – | – | – | > 100 | – | –
6 | COc1ccc(C(=O)/C=C/c2cc(C(=O)c3cc(OC)c(OC)c(OC)c3)ccc2OC)cc1 | – | – | 3.51 | > 100 | – | – | – | – | 6.27 | > 100 | 4.54 | > 100 | – | – | 2.93 | > 100 | 4.92 | > 100 | > 100 | 4.3
7 | CC(C)(C)C(=O)C(c1ccc(-c2cscn2)cc1)c1ccc(-c2cscn2)cc1 | – | – | – | 97.5 | – | > 100 | – | – | – | 84.5 | – | > 69.7 | – | – | – | – | – | > 100 | – | –
8 | CCC(C)/C=C(C)/C=C/C(=O)c1c(O)c(-c2ccc(O)cc2)c[nH]c1=O (configuration not stated) | 3.33 | 14.4 | 3.19 | 14 | – | – | 3.22 | 17 | 2.89 | 13.7 | 5.43 | 19.8 | 2.87 | 11.1 | 3.53 | 27.7 | 6.58 | 19.7 | 9.56 | 2.49
9 | COc1cc2c(cc1OC)[C@@H](C(O)c1ccccc1)NCC2 (some centres not stated) | – | – | – | > 100 | – | – | – | – | – | > 100 | – | > 100 | – | – | – | – | – | > 100 | – | –
10 | Cc1nn2c(/C=C3/C(=O)Nc4ccccc43)c(-c3ccc(Cl)cc3)nc2s1 | 12.2 | 32.2 | 19.9 | > 50 | – | – | – | – | 10.3 | 31.8 | 10.5 | 32.6 | – | – | – | – | 11.5 | 36.4 | > 50 | 27.7
11 | CCc1nc2ccc(Cc3ccc(C(=O)NO)cc3)cc2c(=O)n1CCc1ccccc1 | – | – | 1.31 | 3.91 | 1.47 | 5.72 | 0.809 | 5.41 | 1.02 | 2.6 | 2.07 | 7.57 | 1.09 | 7.81 | 0.37 | 4.59 | 1.27 | 3.24 | 7.4 | 1.59
12 | CCCCC(=O)[O-].N.N.N.N.N.[Co+3].[O-][Cl+3]([O-])([O-])[O-] | – | – | > 100 | > 100 | > 100 | > 100 | – | – | > 100 | > 100 | > 100 | > 100 | – | – | – | – | > 100 | > 100 | – | –
13 | Cl.Fc1c[c-]c(-c2ccccn2)c(F)c1.[Pt].c1ccc([PH+](CC[PH+](c2ccccc2)c2ccccc2)c2ccccc2)cc1 | 0.0514 | 1.09 | – | – | 0.167 | 1.4 | 0.0912 | 1.39 | 0.0474 | 0.328 | 0.0656 | 1.26 | 0.0656 | 1.2 | 1.01 | 4.18 | 0.0741 | 1.22 | – | –
14 | CN(C)CCNC(=O)c1cc([N+](=O)[O-])ccn1 | – | 61.4 | – | 70.7 | – | > 100 | – | 78.1 | – | 93.9 | – | > 100 | – | > 100 | – | – | – | > 100 | > 100 | –
15 | CC(=O)OC[C@@H]1[C@H]2CC(=O)O[C@H]2C[C@H]1OC(C)=O | – | – | – | > 100 | – | > 100 | – | – | – | > 100 | – | > 100 | – | – | – | – | – | > 100 | – | –
16 | O=C(Nc1nccs1)c1cc(C2=CC=CC([N+](=O)[O-])C=C2)nc(=S)[nH]1 (configuration not stated) | – | – | – | > 100 | – | > 100 | – | – | – | > 100 | – | > 100 | – | – | – | – | – | > 100 | – | –
17 | Cc1c(C(=O)CC(=O)C(=O)Nc2cccc(C(F)(F)F)c2)[n+](=O)c2ccccc2n1[O-] | – | – | – | 14.4 | – | 27.2 | – | – | – | 23.4 | – | 19.9 | – | – | – | – | – | 11.4 | – | –
18 | CCN(CC)C(=S)N/N=C(\C)c1ccccc1O | – | – | – | > 100 | – | > 100 | – | – | – | > 100 | – | > 100 | – | – | – | – | – | 51.3 | – | –
19 | CN(C)c1ccc(/C=C2\N=C(c3ccc(N)cc3)OC2=O)cc1 | – | – | – | > 100 | – | > 100 | – | – | – | > 100 | – | > 100 | – | – | – | – | – | > 100 | – | –
20 | Cc1nc(Nc2ccc(F)c(Cl)c2)sc1C(=O)O | 1.75 | 4.8 | 1.76 | 4.36 | 1.77 | 3.68 | – | – | 1.49 | 3.15 | 1.93 | 5.22 | 2.22 | 7.84 | 1.78 | 4.7 | 1.73 | 3.66 | 5.44 | 1.87
21 | CN(C)CCCn1c2c3ccccc3ccc2c2oc(=O)c3ccccc3c21 | – | – | – | 13.4 | – | 12.3 | – | > 100 | – | 7.17 | – | 29.2 | – | – | – | > 26.9 | – | – | > 65.6 | –
